In EP2459551B1, “DIHYDROBENZOINDAZOLES” (Merck Sharp & Dohme B.V., priority 2009, dated 2011) one finds EC50 data, which are given here for 22 compounds.

Molecules are shown by their SMILES.
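Further: CHO cells stably expressing human FSH receptor with CRE-driven firefly luciferase, luminescence read as counts per second after 4 h compound exposure in 1% DMSO.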

The assay deals with T1, human FSH receptor (Homo sapiens, UniProt P23945).
T1 sequence (P23945 18-695): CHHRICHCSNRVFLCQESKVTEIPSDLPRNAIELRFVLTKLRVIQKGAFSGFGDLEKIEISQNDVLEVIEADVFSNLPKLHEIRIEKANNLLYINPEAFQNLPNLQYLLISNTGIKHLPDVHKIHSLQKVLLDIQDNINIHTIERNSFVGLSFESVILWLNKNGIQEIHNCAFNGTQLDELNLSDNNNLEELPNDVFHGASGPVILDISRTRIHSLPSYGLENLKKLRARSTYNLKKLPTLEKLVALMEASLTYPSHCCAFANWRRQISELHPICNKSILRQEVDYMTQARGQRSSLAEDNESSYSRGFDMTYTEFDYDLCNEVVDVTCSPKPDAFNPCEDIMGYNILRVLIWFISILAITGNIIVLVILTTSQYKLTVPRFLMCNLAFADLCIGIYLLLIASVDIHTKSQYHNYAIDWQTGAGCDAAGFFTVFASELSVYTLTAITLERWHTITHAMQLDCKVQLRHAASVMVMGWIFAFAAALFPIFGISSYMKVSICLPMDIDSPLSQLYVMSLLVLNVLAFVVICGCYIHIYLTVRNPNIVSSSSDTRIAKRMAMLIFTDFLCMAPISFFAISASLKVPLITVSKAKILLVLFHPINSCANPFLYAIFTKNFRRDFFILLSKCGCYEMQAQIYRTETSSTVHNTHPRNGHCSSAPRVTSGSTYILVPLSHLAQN
Method: Agonistic activity of compounds at the human FSH receptor expressed in CHO cells
Agonistic activity of the compounds at the human FSH receptor was determined in Chinese Hamster Ovary (CHO) cells stably transfected with the human FSH receptor and cotransfected with a cAMP responsive element (CRE)/promotor directing the expression of a firefly luciferase reporter gene. […] Cells (7,500 cells/well of a 384 well plate) were incubated in Dulbecco' minimal essential F12 modified medium (Invitrogen), supplemented with 1 µg/ml bovine insulin, 5 µg/ml human apotransferrin, 80 U/ml penicillin G and 80 µg/ml streptomycin with the test compounds (concentration between 0.0316 nM and 10.0 µM) in duplicate in a humidified atmosphere (95%) at 5-7% CO2 and 37°C. The final concentration of DMSO was 1%. After 4 hours of incubation, plates were allowed to adjust to room temperature for 1 hour. Then, Luclite (PerkinElmer) solution was added to the wells and cells were allowed to lyse for at least 1 hour at room temperature. Subsequently, luciferase activity was measured in a luminescence counter. The signal is expressed as counts per second (cps). The EC50 (concentration of the test compound that elicits half-maximal (50 %) luciferase stimulation compared to the compound's maximally attainable effect) and efficacy values (maximal effect of the test compound as percentage of the maximal effect of recombinant human FSH) of the compounds were determined using the software program MathIQ (version 2.0, ID Business Solutions Limited).
Turning to `COc1cc2c(cc1OC(C)C)-c1c(c(C(=O)N(C)C(C)(C)C)nn1-c1cccc(C)c1)CC2` [Example 8cd, N-tert-butyl-8-isopropoxy-7-methoxy-N-methyl-1-m-tolyl-4,5-dihydro-1H-benzo[g]indazole-3-carboxamide], the concentration for a half-maximal effect (EC50) lay in the range of 0.1 to 1 µM.

In the case of `COc1cc2c(cc1OC(C)C)-c1c(c(C(=O)N(C)C(C)(C)C)nn1-c1ccccc1Br)CC2` [Example 9ca, 1-(2-bromophenyl)-N-tert-butyl-8-isopropoxy-7-methoxy-N-methyl-4,5-dihydro-1H-benzo[g]indazole-3-carboxamide], the EC50 was in the range of 0.1 to 1 µM.

`CC=Cc1ccccc1-n1nc(C(=O)N(C)C(C)(C)C)c2c1-c1cc(OC(C)C)c(OC)cc1CC2` [Example 9cb, 1-(2-(2-methylvinyl)-phenyl)-N-tert-butyl-8-isopropoxy-7-methoxy-N-methyl-4,5-dihydro-1H-benzo[g]indazole-3-carboxamide] yielded an EC50 of 1 to 10 µM.

Turning to `C=Cc1ccccc1-n1nc(C(=O)N(C)C(C)(C)C)c2c1-c1cc(OC(C)C)c(OC)cc1CC2` [Example 9cc, N-tert-butyl-8-isopropoxy-7-methoxy-N-methyl-1-(2-vinylphenyl)-4,5-dihydro-1H-benzo[g]indazole-3-carboxamide], the EC50 is 1 to 10 µM.

As for `COc1cc2c(cc1OC(C)C)-c1c(c(C(=O)N(C)C(C)(C)C)nn1-c1ccccc1-c1ccoc1)CC2` [Example 9cd, N-tert-butyl-1-(2-(furan-3-yl)phenyl)-8-isopropoxy-7-methoxy-N-methyl-4,5-dihydro-1H-benzo[g]indazole-3-carboxamide], the EC50 was in the range of 1 to 10 µM.

On to `COc1cc2c(cc1OC(C)C)-c1c(c(C(=O)N(C)C(C)(C)C)nn1-c1ccccc1C)CC2` [Example 10ca, N-tert-butyl-8-isopropoxy-7-methoxy-N-methyl-1-o-tolyl-4,5-dihydro-1H-benzo[g]lindazole-3-carboxamide], for which the half-maximal effective concentration (EC50) lay in the range of 1 to 10 µM.

In turn, `COc1cc2c(cc1OC(C)C)-c1c(c(C(=O)N(C)C(C)(C)C)nn1-c1ccccc1F)CC2` [Example 10cb, N-tert-butyl-1-(2-fluorophenyl)-8-isopropoxy-7-methoxy-N-methyl-4,5-dihydro-1H-benzo[g]indazole-3-carboxamide] showed a 50% effective concentration (EC50) of 0.1 to 1 µM.

With `COc1cc2c(cc1OC(C)C)-c1c(c(C(=O)N(C)C(C)(C)C)nn1-c1ccccc1OC)CC2` [Example 10cc, N-tert-butyl-8-isopropoxy-7-methoxy-1-(2-methoxyphenyl)-N-methyl-4,5-dihydro-1H-benzo[g]indazole-3-carboxamide], the half-maximal effective concentration (EC50) fell in the range of 1 to 10 µM.

On to `COc1cc2c(cc1-c1ncco1)-c1c(c(C(=O)N(C)C(C)(C)C)nn1-c1ccccc1Cl)CC2` [Example 11ga, N-tert-butyl-1-(2-chlorophenyl)-7-methoxy-N-methyl-8-(oxazol-2-yl)-4,5-dihydro-1H-benzo[g]lindazole-3-carboxamide], for which the 50% effective concentration (EC50) lay in the range of 1 to 10 µM.

Compound `COc1cc2c(cc1NC(=O)c1cocn1)-c1c(c(C(=O)N(C)C(C)(C)C)nn1-c1cccc(C)c1)CC2` [Example 12g] showed a 50% effective concentration (EC50) of 1 to 10 µM.

In turn, `COc1cc2c(cc1NS(C)(=O)=O)-c1c(c(C(=O)N(C)C(C)(C)C)nn1-c1cccc(C)c1)CC2` [Example 12h] displayed an EC50 of 1 to 10 µM.

In turn, `COc1cc2c(cc1NC(=O)CN1CCN(C)CC1)-c1c(c(C(=O)N(C)C(C)(C)C)nn1-c1cccc(C)c1)CC2` [Example 12ja, N-tert-butyl-7-methoxy-N-methyl-8-(2-(4-methylpiperazin-1-yl)acetamido)-1-m-tolyl-4,5-dihydro-1H-benzo[g]indazole-3-carboxamide] returned an EC50 of 1 to 10 µM.

As for `COc1cc2c(cc1NC(=O)CN1CCOCC1)-c1c(c(C(=O)N(C)C(C)(C)C)nn1-c1cccc(C)c1)CC2` [Example 12jb, N-tert-butyl-7-methoxy-N-methyl-8-(2-morpholinoacetamido)-1-m-tolyl-4,5-dihydro-1H-benzo[g]indazole-3-carboxamide], the EC50 fell in the range of 1 to 10 µM.

As for `COc1cc2c(cc1NC(=O)CN(C)C)-c1c(c(C(=O)N(C)C(C)(C)C)nn1-c1cccc(C)c1)CC2` [Example 12jc, N-tert-butyl-8-(2-(dimethylamino)acetamido)-7-methoxy-N-methyl-1-m-tolyl-4,5-dihydro-1H-benzo[g]indazole-3-carboxamide], the EC50 lay within 1 to 10 µM.

Consider `COc1cc2c(cc1NC(=O)CN1CCC1)-c1c(c(C(=O)N(C)C(C)(C)C)nn1-c1cccc(C)c1)CC2` [Example 12jd, 8-(2-(azetidin-1-yl)acetamido)-N-tert-butyl-7-methoxy-N-methyl-1-m-tolyl-4,5-dihydro-1H-benzo[g]indazole-3-carboxamide], for which the EC50 was 1 to 10 µM.

Compound `COc1cc2c(cc1OC(C)C)-c1c(c(C(=O)N(C)C(C)(C)C)nn1-c1ccc(C)cc1)CC2` [Example 13ca, N-tert-butyl-8-isopropoxy-7-methoxy-N-methyl-1-p-tolyl-4,5-dihydro-1H-benzo[g]indazole-3-carboxamide] had an EC50 of 1 to 10 µM.

Compound `CCc1ccc(-n2nc(C(=O)N(C)C(C)(C)C)c3c2-c2cc(OC(C)C)c(OC)cc2CC3)cc1` [Example 13cb, N-tert-butyl-1-(4-ethylphenyl)-8-isopropoxy-7-methoxy-N-methyl-4,5-dihydro-1H-benzo[g]lindazole-3-carboxamide] returned an EC50 of 1 to 10 µM.

`COc1ccc(-n2nc(C(=O)N(C)C(C)(C)C)c3c2-c2cc(OC(C)C)c(OC)cc2CC3)cc1` [Example 13cc, N-tert-butyl-8-isopropoxy-7-methoxy-1-(4-methoxyphenyl)-N-methyl-4,5-dihydro-1H-benzo[g]indazole-3-carboxamide]: the concentration for a half-maximal effect (EC50) lay within 1 to 10 µM.

In the case of `COc1cc2c(cc1OC(C)C)-c1c(c(C(=O)N(C)C(C)(C)C)nn1-c1ccc(F)cc1)CC2` [Example 13cd, N-tert-butyl-1-(4-fluorophenyl)-8-isopropoxy-7-methoxy-N-methyl-4,5-dihydro-1H-benzo[g]indazole-3-carboxamide], the EC50 lay within 0.1 to 1 µM.

Turning to `COc1cc2c(cc1OC(C)C)-c1c(c(C(=O)N(C)C(C)(C)C)nn1-c1ccc(Cl)cc1)CC2` [Example 13ce, N-tert-butyl-1-(4-chlorophenyl)-8-isopropoxy-7-methoxy-N-methyl-4,5-dihydro-1H-benzo[g]indazole-3-carboxamide], the EC50 was 0.1 to 1 µM.

With `COc1cc2c(cc1OC(C)C)-c1c(c(C(=O)N(C)C(C)(C)C)nn1-c1ccc(Br)cc1)CC2` [Example 13cf, N-tert-butyl-1-(4-bromophenyl)-8-isopropoxy-7-methoxy-N-methyl-4,5-dihydro-1H-benzo[g]indazole-3-carboxamide], the EC50 lay within 1 to 10 µM.

`COc1cc2c(cc1OC)-c1c(c(C(=O)N3CCCN(C(C)=O)CC3)nn1-c1ccsc1)CC2` [Example 14e, 1-(4-(7,8-dimethoxy-1-(thiophen-3-yl)-4,5-dihydro-1H-benzo[g]indazole-3-carbonyl)-1,4-diazepan-1-yl)ethanone] displayed a 50% effective concentration (EC50) of 1 to 10 µM.
